Measured values published in US5705492A, “3'-O-aminoacyl ARA uridines, method of making, and antiviral activity” (Hoffmann-La Roche Inc., priority 1995, dated 1998).
Structures can show the parent of a compound that is named as a salt.

Tests used:
HSV-2 thymidine kinase = HSV-2 thymidine kinase (Human herpesvirus 2, UniProt P04407); experiment: inhibition of HSV-2 thymidine kinase; type: biochemical; conditions: 3H-thymidine phosphorylation, 37° C., 30 minutes, pH 8; read-out: IC50 against HSV-2 thymidine kinase
Sequence of HSV-2 thymidine kinase (P04407 whole entry): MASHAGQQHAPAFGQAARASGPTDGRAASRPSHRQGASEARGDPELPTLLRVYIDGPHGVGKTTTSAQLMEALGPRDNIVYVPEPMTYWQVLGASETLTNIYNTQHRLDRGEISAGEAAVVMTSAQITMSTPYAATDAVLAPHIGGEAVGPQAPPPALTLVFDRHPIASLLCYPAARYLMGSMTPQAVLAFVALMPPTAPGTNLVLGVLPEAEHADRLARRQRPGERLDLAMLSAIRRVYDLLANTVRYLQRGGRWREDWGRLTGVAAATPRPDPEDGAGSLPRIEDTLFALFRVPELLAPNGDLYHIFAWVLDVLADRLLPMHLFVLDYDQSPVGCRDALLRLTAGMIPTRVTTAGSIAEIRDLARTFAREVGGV
Protocol: (§1) In this test procedure, the assay mixture contains 50 mmol Tris HCl, pH 8, 5 mmol magnesium chloride, 5 mmol ATP, 0.3 μmol ^3 H-thymidine (50 Ci/mmol), suitably diluted enzyme preparation and various concentrations of test compounds in a total volume of 100 μl. Assays are incubated at 37° C. for 30 minutes and the reaction is terminated by immersion in a boiling water bath for 2 minutes. 85 μl aliquots from each assay are then dried on to DEAE-cellulose paper discs and the unphosphorylated ^3 H-thymidine is removed by washing in 4 mmol ammonium formate. The radioactivity remaining bound to the discs is then measured by scintillation spectrophotometry. The degree of inhibition at each concentration of test compound is expressed as a percentage of the control reaction (100%) after subtracting a measured blank value which represents the amount of radioactivity bound to the disc from a reaction containing heat-inactivated enzymes. The IC50 value, namely the concentration of test compound which inhibits enzyme activity by 50%, is then calculated.

HSV-1 thymidine kinase = HSV-1 thymidine kinase (Human herpesvirus 1, UniProt P0DTH5); experiment: inhibition of HSV-1 thymidine kinase; type: biochemical; conditions: 3H-thymidine phosphorylation, 37° C., 30 minutes, pH 8; read-out: IC50 against HSV-1 thymidine kinase
Sequence of HSV-1 thymidine kinase (P0DTH5 whole entry): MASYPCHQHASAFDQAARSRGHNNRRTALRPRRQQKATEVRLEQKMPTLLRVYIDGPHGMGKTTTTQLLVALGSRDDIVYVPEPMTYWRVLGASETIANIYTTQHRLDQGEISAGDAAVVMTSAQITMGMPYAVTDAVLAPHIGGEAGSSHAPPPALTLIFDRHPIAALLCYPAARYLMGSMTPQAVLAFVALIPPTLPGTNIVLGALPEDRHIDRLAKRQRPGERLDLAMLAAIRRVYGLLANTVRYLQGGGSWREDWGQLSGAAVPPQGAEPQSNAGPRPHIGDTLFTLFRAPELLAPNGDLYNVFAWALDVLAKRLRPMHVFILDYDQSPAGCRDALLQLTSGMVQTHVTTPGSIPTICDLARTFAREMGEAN
Protocol: as §1

Q: With `CCc1cn([C@@H]2O[C@H](CNC(=O)[C@H](C)Oc3cc(OC)c(Cl)cc3Cl)[C@@H](OC(=O)[C@@H](N)C(C)C)[C@@H]2F)c(=O)[nH]c1=O` [Example 1, 1-[5-[2(S)-(2,4-dichloro-5-methoxyphenoxy)propionamido]-1,5-dideoxy-2-fluoro-3-O-L-valyl-β-D-arabinofuranosyl]-5-ethyluracil hydrochloride] as the compound, how does the IC50 (HSV-2 thymidine kinase) read?
A: 1.1 nM

Q: What about the IC50 (HSV-1 thymidine kinase) of the same compound?
A: 18 nM
